Assay results as given in article PMC3517777, “Phase I study of TP300 in patients with advanced solid tumors with pharmacokinetic, pharmacogenetic and pharmacodynamic analyses” (BMC Cancer, 2012).

Legend:
Assay type in all cases: in vivo, human
[1] = tested on: neutrophil count; test: Exposure versus fall in nadir neutrophil count, sigmoid Emax model; conditions: 1-nadir/pre-observation neutrophils in cycle 1 vs total AUC of TP3076 plus TP3011, sigmoid Emax fit
Procedure: Pharmacokinetic parameters derived from plasma concentration-time data of TP3076 or TP3011 by non-compartmental methods using WinNonlin (version 5.1; Pharsight Corp), included maximal plasma concentration (Cmax) and time of Cmax (Tmax), apparent plasma elimination half-life (t1/2), and the area under the curve (AUC). The urinary excretion ratio (fe) of TP3076 and TP3011 was calculated from the urinary concentration and volume up to 48 hours after administration, and the administration dose. The linearity of Cmax and AUC was determined with linear regression, analysis of variance and power model analysis. The sum of the AUCs of TP3076 and TP3011 was plotted against percentage (%) fall in nadir neutrophil count to explore the relationship between exposure and myelosuppression as a measure of anti-proliferative effect and a sigmoid Emax model fitted to the data:
where γ is the Hill equation constant and EAUC50 is the AUC associated with 50% of the maximal effect.

[2] = tested on: peripheral blood mononuclear cells (PBMCs); test: Single cell gel electrophoresis (comet) assay of DNA strand breaks; conditions: 1 hour post first dose, across all doses
Procedure: Analysis of the ability of TP300 to induce DNA strand breaks was performed on peripheral blood mononuclear cells (PBMCs), pre-dose, 1, 3 and 24 hours post cycle 1. A validated single cell gel electrophoresis (comet) assay was used to assess DNA single-strand breaks. An average of 50 PBMC cells/time-point were analysed and the tail moment (TM) calculated, as the product of the percentage of DNA in the comet tail and the distance between head and tail distributions; higher TM values reflect greater DNA strand breakage. Statistical analyses were not performed due to the limited number of subjects/samples per cohort.

[3] = tested on: advanced solid tumors; test: Antitumour activity (RECIST) in Phase I patients
Procedure: The MTD was the dose level below that at which ≥ 2 out of 3–6 patients experienced a DLT. Radiologic assessment of disease was performed every 2 cycles. Patients could remain on treatment if there was evidence of clinical benefit but were withdrawn from the study upon clinical or radiologic progression, unacceptable toxicity or withdrawal of consent.

CCCCCN1C=Nc2cccc3nc4c(c1c23)Cn1c-4cc2c(c1=O)COC(=O)[C@@]2(CC)OC(=O)CN(C)C(=O)CN [TP300, glycine,glycyl-N-methyl-,(9S)-9-ethyl-9,10,13,15-tetrahydro-10,13-dioxo-1-pentyl-1H,12H-pyrano[3'',4'':6′,7′]indolizino[2′,1′:5,6]pyrido[4,3,2-de]quinazolin-9-yl ester, hydro-chloride]
EAUC50 (AUC associated with 50% of the maximal effect) [1]: 1.31 | γ (Hill equation constant) [1]: 0.862 | increase of DNA strand breaks vs pre-treatment [2]: approximately 2 fold | mean tail moment (TM) ([2]; pre-treatment mean 0.69): 1.65 | patients with stable disease as best response ([3]; 1 each at 4, 8 and 12 mg/m^2 and 3 at 10 mg/m^2): six | objective response as determined by RECIST ([3]; 32 patients, 1-12 mg/m^2): no complete or partial responses | duration of stable disease ([3]; six patients with stable disease): 1.5-5 months
